Experiments:
Format in all cases: in vivo
Design in all cases: key: 0 is no effect; 10 is complete control
[1] = system: bamyardgrass (Echinochloa crus-galli); test: Test B flood test
Method in brief: (§1)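 Plants were grown to the 2-leaf stage before treatment with test chemical, then held in a greenhouse for twelve to sixteen days. Injury was visually rated against untreated controls on a 0–10 scale, where 0 is no effect and 10 is complete control.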

[2] = system: smallflower flatsedge (Cyperus difformis); test: Test B flood test
Method in brief: as §1

rice (Oryza sativa) = test: Test B flood test
Method in brief: as §1

[3] = system: duck salad (Heteranthera limosa); test: Test B flood test
Method in brief: as §1

[4] = system: momingglory (Ipomoea hederacea); test: Test B pre-/postemergence
Method in brief: (§2)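 Seeds were planted and sprayed preemergence, while plants at 2 to 18 cm (1- to 4-leaf stage) were sprayed postemergence at the same time, with test chemical in a non-phytotoxic solvent mixture containing surfactant. After twelve to sixteen days in a greenhouse, injury was rated visually against untreated controls on a 0–10 scale.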

rape (Brassica napus) = test: Test B pre-/postemergence
Method in brief: as §2

[5] = system: bedstraw (Galium aparine); test: Test B pre-/postemergence; conditions: for Bedstraw plant response rating: Preemergence
Method in brief: as §2

wild oat (Avena fatua) = test: Test B pre-/postemergence
Method in brief: as §2

[6] = system: velvetleaf (Abutilon theophrasti); test: Test B pre-/postemergence
Method in brief: as §2

[7] = system: cocklebur (Xanthium strumarium); test: Test B pre-/postemergence; conditions: for Cocklebur plant response rating: Preemergence
Method in brief: as §2

[8] = system: giant foxtail (Setaria faberii); test: Test B pre-/postemergence
Method in brief: as §2

[9] = system: pigweed (Amaranthus retroflexus); test: Test B pre-/postemergence
Method in brief: as §2

soybean (Glycine max) = test: Test B pre-/postemergence
Method in brief: as §2

[10] = system: crabgrass (Digitaria sanguinalis); test: Test B pre-/postemergence; conditions: for Crabgrass plant response rating: Preemergence
Method in brief: as §2

[11] = system: broadleaf signalgrass (Brachiaria decumbens); test: Test B pre-/postemergence; conditions: for B. signalgrass plant response rating: Preemergence
Method in brief: as §2

corn (Zea mays) = test: Test B pre-/postemergence; conditions: for Corn plant response rating: Preemergence
Method in brief: as §2

[12] = system: sugar beet (Beta vulgaris); test: Test B pre-/postemergence
Method in brief: as §2

[13] = system: blackgrass (Alopecurus myosuroides); test: Test B pre-/postemergence; conditions: for Blackgrass plant response rating: Preemergence
Method in brief: as §2

[14] = system: wheat (Triticum aestivum); test: Test B pre-/postemergence
Method in brief: as §2

[15] = system: purple nutsedge (Cyperus rotundus); test: Test B pre-/postemergence
Method in brief: as §2

[16] = Rate 62 g/ha, Postemergence (flood test)
[17] = Rate 125 g/ha, Postemergence, flood test
[18] = Rate 250 g/ha, Postemergence (flood test species)
[19] = Rate 125 g/ha, Postemergence section (flood test species)
[20] = Rate 250 g/ha, Postemergence (so in the source)

Cc1cnc(-c2ccc(C#N)cc2)nc1Cc1cccc(C#N)c1 [Compound 36] was tested, and the “Plant response rating, Barnyardgrass” value [1, 16] was 0, the “Plant response rating, Barnyardgrass” value [1, 17] was 0 and the “Plant response rating, Barnyardgrass” value [1, 18] was 0. The “Plant response rating, S. Flatsedge” value [2, 16] was 2, the “S. Flatsedge plant response rating” value [2, 19] was 5 and the “Plant response rating, S. Flatsedge” value [2, 18] was 6. For the same compound, the “Plant response rating, Rice” value (rice (Oryza sativa); [16]) was 0, the “Rice plant response rating” value (rice (Oryza sativa); [19]) was 0 and the “Plant response rating, Rice” value (rice (Oryza sativa); [18]) was 0. For the same compound, the “Plant response rating, Ducksalad” value [3, 16] was 0, the “Plant response rating, Ducksalad” value [3, 17] was 0 and the “Plant response rating, Ducksalad” value [3, 18] was 1. The “Plant response rating, Morningglory” value ([4]; Rate 62 g/ha, Postemergence) was 1, the “Morningglory plant response rating” value ([4]; Rate 62 g/ha, Preemergence) was 0 and the “Morningglory plant response rating” value ([4]; Rate 125 g/ha, Postemergence) was 2. For the same compound, the “Morningglory plant response rating” value ([4]; Rate 125 g/ha, Preemergence) was 0, the “Plant response rating, Morningglory” value ([4]; Rate 250 g/ha, Postemergence) was 2 and the “Plant response rating, Morningglory” value [4, 20] was 0. The “Plant response rating, Rape” value (rape (Brassica napus); Rate 62 g/ha, Postemergence) was 4, the “Rape plant response rating” value (rape (Brassica napus); Rate 62 g/ha, Preemergence) was 0 and the “Rape plant response rating” value (rape (Brassica napus); Rate 125 g/ha, Postemergence) was 5. The “Rape plant response rating” value (rape (Brassica napus); Rate 125 g/ha, Preemergence) was 0, the “Plant response rating, Rape” value (rape (Brassica napus); Rate 250 g/ha, Postemergence) was 5 and the “Plant response rating, Rape” value (rape (Brassica napus); [20]) was 1. For the same compound, the “Plant response rating, Bedstraw” value ([5]; Rate 62 g/ha, Postemergence) was 6, the “Bedstraw plant response rating” value ([5]; Rate 62 g/ha) was 0 and the “Plant response rating, Bedstraw” value ([5]; Rate 125 g/ha, Postemergence) was 7. The “Bedstraw plant response rating” value ([5]; Rate 125 g/ha) was 0, the “Plant response rating, Bedstraw” value ([5]; Rate 250 g/ha, Postemergence) was 7 and the “Plant response rating, Bedstraw” value [5, 20] was 0. For the same compound, the “Wild oats plant response rating” value (wild oat (Avena fatua); Rate 62 g/ha, Postemergence) was 0, the “Wild oats plant response rating” value (wild oat (Avena fatua); Rate 62 g/ha, Preemergence) was 0 and the “Wild oats plant response rating” value (wild oat (Avena fatua); Rate 125 g/ha, Postemergence) was 1. The “Plant response rating, Wild oats” value (wild oat (Avena fatua); Rate 125 g/ha, Preemergence) was 0, the “Plant response rating, Wild oats” value (wild oat (Avena fatua); Rate 250 g/ha, Postemergence) was 2 and the “Plant response rating, Wild oats” value (wild oat (Avena fatua); [20]) was 0. The “Plant response rating, Velvetleaf” value ([6]; Rate 62 g/ha, Postemergence) was 1, the “Velvetleaf plant response rating” value ([6]; Rate 62 g/ha, Preemergence) was 0 and the “Velvetleaf plant response rating” value ([6]; Rate 125 g/ha, Postemergence) was 1. For the same compound, the “Plant response rating, Velvetleaf” value ([6]; Rate 125 g/ha, Preemergence) was 0, the “Plant response rating, Velvetleaf” value ([6]; Rate 250 g/ha, Postemergence) was 1 and the “Plant response rating, Velvetleaf” value [6, 20] was 1. For the same compound, the “Plant response rating, Cocklebur” value ([7]; Rate 62 g/ha, Postemergence) was 1, the “Cocklebur plant response rating” value ([7]; Rate 62 g/ha) was 0 and the “Plant response rating, Cocklebur” value ([7]; Rate 125 g/ha, Postemergence) was 2. For the same compound, the “Cocklebur plant response rating” value ([7]; Rate 125 g/ha) was 0, the “Plant response rating, Cocklebur” value ([7]; Rate 250 g/ha, Postemergence) was 3 and the “Plant response rating, Cocklebur” value [7, 20] was 0. For the same compound, the “Plant response rating, Giant foxtail” value ([8]; Rate 62 g/ha, Postemergence) was 0, the “Giant foxtail plant response rating” value ([8]; Rate 62 g/ha, Preemergence) was 0 and the “Giant foxtail plant response rating” value ([8]; Rate 125 g/ha, Postemergence) was 1. For the same compound, the “Giant foxtail plant response rating” value ([8]; Rate 125 g/ha, Preemergence) was 0, the “Plant response rating, Giant foxtail” value ([8]; Rate 250 g/ha, Postemergence) was 1 and the “Plant response rating, Giant foxtail” value [8, 20] was 0. For the same compound, the “Plant response rating, Redroot pigweed” value ([9]; Rate 62 g/ha, Postemergence) was 0, the “Redroot pigweed plant response rating” value ([9]; Rate 62 g/ha, Preemergence) was 0 and the “Redroot pigweed plant response rating” value ([9]; Rate 125 g/ha, Postemergence) was 4. For the same compound, the “Redroot pigweed plant response rating” value ([9]; Rate 125 g/ha, Preemergence) was 0, the “Plant response rating, Redroot pigweed” value ([9]; Rate 250 g/ha, Postemergence) was 8 and the “Plant response rating, Redroot pigweed” value [9, 20] was 8. For the same compound, the “Plant response rating, Soybean” value (soybean (Glycine max); Rate 62 g/ha, Postemergence) was 1, the “Soybean plant response rating” value (soybean (Glycine max); Rate 62 g/ha, Preemergence) was 0 and the “Soybean plant response rating” value (soybean (Glycine max); Rate 125 g/ha, Postemergence) was 1. For the same compound, the “Plant response rating, Soybean” value (soybean (Glycine max); Rate 125 g/ha, Preemergence) was 0, the “Plant response rating, Soybean” value (soybean (Glycine max); Rate 250 g/ha, Postemergence) was 2 and the “Plant response rating, Soybean” value (soybean (Glycine max); [20]) was 1. The “Plant response rating, Crabgrass” value ([10]; Rate 62 g/ha, Postemergence) was 0, the “Crabgrass plant response rating” value ([10]; Rate 62 g/ha) was 0 and the “Plant response rating, Crabgrass” value ([10]; Rate 125 g/ha, Postemergence) was 1. The “Crabgrass plant response rating” value ([10]; Rate 125 g/ha) was 0, the “Plant response rating, Crabgrass” value ([10]; Rate 250 g/ha, Postemergence) was 1 and the “Plant response rating, Crabgrass” value [10, 20] was 0. The “Plant response rating, B. signalgrass” value ([11]; Rate 62 g/ha, Postemergence) was 1, the “B. signalgrass plant response rating” value ([11]; Rate 62 g/ha) was 0 and the “Plant response rating, B. signalgrass” value ([11]; Rate 125 g/ha, Postemergence) was 1. For the same compound, the “B. signalgrass plant response rating” value ([11]; Rate 125 g/ha) was 0, the “Plant response rating, B. signalgrass” value ([11]; Rate 250 g/ha, Postemergence) was 1 and the “Plant response rating, B. signalgrass” value ([11]; Rate 250 g/ha, Postemergence as printed in head r139 (second section for compounds 26-50)) was 0. For the same compound, the “Plant response rating, Corn” value (corn (Zea mays); Rate 62 g/ha, Postemergence) was 1, the “Corn plant response rating” value (corn (Zea mays); Rate 62 g/ha) was 0 and the “Plant response rating, Corn” value (corn (Zea mays); Rate 125 g/ha, Postemergence) was 1. The “Corn plant response rating” value (corn (Zea mays); Rate 125 g/ha) was 0, the “Plant response rating, Corn” value (corn (Zea mays); Rate 250 g/ha, Postemergence) was 1 and the “Plant response rating, Corn” value (corn (Zea mays); [20]) was 0. The “Plant response rating, Sugarbeets” value ([12]; Rate 62 g/ha, Postemergence) was 8, the “Sugarbeets plant response rating” value ([12]; Rate 62 g/ha, Preemergence) was 0 and the “Sugarbeets plant response rating” value ([12]; Rate 125 g/ha, Postemergence) was 8. For the same compound, the “Plant response rating, Sugarbeets” value ([12]; Rate 125 g/ha, Preemergence) was 0, the “Plant response rating, Sugarbeets” value ([12]; Rate 250 g/ha, Postemergence) was 9 and the “Plant response rating, Sugarbeets” value [12, 20] was 2. The “Plant response rating, Blackgrass” value ([13]; Rate 62 g/ha, Postemergence) was 0, the “Blackgrass plant response rating” value ([13]; Rate 62 g/ha) was 0 and the “Plant response rating, Blackgrass” value ([13]; Rate 125 g/ha, Postemergence) was 0. For the same compound, the “Blackgrass plant response rating” value ([13]; Rate 125 g/ha) was 0, the “Plant response rating, Blackgrass” value ([13]; Rate 250 g/ha, Postemergence) was 2 and the “Plant response rating, Blackgrass” value [13, 20] was 1. The “Wheat plant response rating” value ([14]; Rate 62 g/ha, Postemergence) was 0, the “Wheat plant response rating” value ([14]; Rate 62 g/ha, Preemergence) was 0 and the “Wheat plant response rating” value ([14]; Rate 125 g/ha, Postemergence) was 1. For the same compound, the “Plant response rating, Wheat” value ([14]; Rate 125 g/ha, Preemergence) was 0, the “Plant response rating, Wheat” value ([14]; Rate 250 g/ha, Postemergence) was 2 and the “Plant response rating, Wheat” value [14, 20] was 0. For the same compound, the “Plant response rating, Nutsedge” value ([15]; Rate 62 g/ha, Postemergence) was 0, the “Nutsedge plant response rating” value ([15]; Rate 62 g/ha, Preemergence) was 0 and the “Nutsedge plant response rating” value ([15]; Rate 125 g/ha, Postemergence) was 0. The “Nutsedge plant response rating” value ([15]; Rate 125 g/ha, Preemergence) was 0, the “Plant response rating, Nutsedge” value ([15]; Rate 250 g/ha, Postemergence) was 0 and the “Plant response rating, Nutsedge” value [15, 20] was 0.
